Source: patent US20200187499A1, “SUBSTITUTED BENZYL-4-AMINOPICOLINIC ESTERS AND PYRIMIDINO-4-CARBOXYLIC ESTERS, METHODS FOR THE PRODUCTION THEREOF, AND USE THEREOF AS HERBICIDES AND PLANT GROWTH REGULATORS” (Bayer CropScience Aktiengesellschaft, priority 2017, published 2020)

Columns and labels:
Assay type in all cases: in vivo
[1] = test system: ABUTH; experiment: Pre-emergence herbicidal action; settings: 320 g/ha, scored after 3 weeks
Excerpt: (§1) Seeds of monocotyledonous and dicotyledonous weed plants and crop plants are laid out in sandy loam soil in wood-fiber pots and covered with soil. The compounds of the invention, formulated in the form of wettable powders (WP) or as emulsion concentrates (EC), are then applied to the surface of the covering soil in the form of an aqueous suspension or emulsion at a water application rate equating to 600 to 800 I/ha, with addition of 0.2% wetting agent. After the treatment, the pots are placed in a greenhouse and kept under good growth conditions for the trial plants. The damage to the test plants is scored visually after a test period of 3 weeks by comparison with untreated controls (herbicidal activity in percent (%): 100% activity=the plants have died, 0% activity=like control plants).
(§2) At the same time, inventive compounds leave Gramineae crops such as barley, wheat, rye, millet/sorghum, corn or rice virtually undamaged when applied pre-emergence, even at high active ingredient dosages. In addition, some substances are also harmless to dicotyledonous crops such as soya, cotton, oilseed rape, sugar beet or potatoes. […] The tables below illustrate, in an exemplary manner, the pre-emergence herbicidal action of the compounds according to the invention, the herbicidal activity being stated in percent.

[2] = test system: ALOMY; experiment: Pre-emergence herbicidal action; settings: 320 g/ha, scored after 3 weeks
Excerpt: as §1, §2

[3] = test system: AMARE; experiment: Pre-emergence herbicidal action; settings: 320 g/ha, scored after 3 weeks
Excerpt: as §1, §2

[4] = test system: ECHCG; experiment: Pre-emergence herbicidal action; settings: 320 g/ha, scored after 3 weeks
Excerpt: as §1, §2

[5] = test system: SETVI; experiment: Pre-emergence herbicidal action; settings: 320 g/ha, scored after 3 weeks
Excerpt: as §1, §2

[6] = test system: ABUTH; experiment: Post-emergence herbicidal action; settings: 320 g/ha, assessed after about 3 weeks
Protocol: (§3) Seeds of monocotyledonous and dicotyledonous weed and crop plants are laid out in sandy loam soil in wood-fiber pots, covered with soil and cultivated in a greenhouse under good growth conditions. 2 to 3 weeks after sowing, the test plants are treated at the one-leaf stage. The compounds of the invention, formulated in the form of wettable powders (WP) or as emulsion concentrates (EC), are then sprayed onto the green parts of the plants in the form of an aqueous suspension or emulsion at a water application rate equating to 600 to 800 l/ha, with addition of 0.2% wetting agent. After the test plants have been left to stand in the greenhouse under optimal growth conditions for about 3 weeks, the action of the preparations is assessed visually in comparison to untreated controls (herbicidal action in percent (%): 100% activity=the plants have died, 0% activity=like control plants). […] At the same time, inventive compounds leave Gramineae crops such as barley, wheat, rye, millet/sorghum, corn or rice virtually undamaged when applied post-emergence, even at high active ingredient dosages. In addition, some substances are also harmless to dicotyledonous crops such as soya, cotton, oilseed rape, sugar beet or potatoes. Some of the compounds according to the invention have high selectivity and are therefore suitable for controlling unwanted vegetation in agricultural crops by the post-emergence method. The tables below illustrate, in an exemplary manner, the post-emergence herbicidal action of the compounds according to the invention, the herbicidal activity being stated in percent.

[7] = test system: AMARE; experiment: Post-emergence herbicidal action; settings: 320 g/ha, assessed after about 3 weeks
Protocol: as §3

[8] = test system: ECHCG; experiment: Post-emergence herbicidal action; settings: Table 5, post-emergence (PO), 320 g/ha, assessed after about 3 weeks
Protocol: as §3

[9] = test system: PHBPU; experiment: Post-emergence herbicidal action; settings: Table 5, post-emergence (PO), 320 g/ha, assessed after about 3 weeks
Protocol: as §3

[10] = test system: POLCO; experiment: Post-emergence herbicidal action; settings: Table 5, post-emergence (PO), 320 g/ha, assessed after about 3 weeks
Protocol: as §3

[11] = test system: SETVI; experiment: Post-emergence herbicidal action; settings: 320 g/ha, assessed after about 3 weeks
Protocol: as §3

[12] = test system: STEME; experiment: Post-emergence herbicidal action; settings: 320 g/ha, assessed after about 3 weeks
Protocol: as §3

[13] = test system: VIOTR; experiment: Post-emergence herbicidal action; settings: Table 5, post-emergence (PO), 320 g/ha, assessed after about 3 weeks
Protocol: as §3

[14] = test system: POLCO; experiment: Pre-emergence herbicidal action; settings: Table 2, pre-emergence (PE), 320 g/ha, scored after 3 weeks
Excerpt: as §1, §2

[15] = test system: VIOTR; experiment: Pre-emergence herbicidal action; settings: Table 2, pre-emergence (PE), 320 g/ha, scored after 3 weeks
Excerpt: as §1, §2

Compound	Herbicidal action against ABUTH ([1]; Table 3, pre-emergence (PE)) [%]	Herbicidal action against ALOMY ([2]; Table 3, pre-emergence (PE)) [%]	Herbicidal action against AMARE ([3]; Table 3, pre-emergence (PE)) [%]	Herbicidal action against ECHCG ([4]; Table 3, pre-emergence (PE)) [%]	Herbicidal action against SETVI ([5]; Table 3, pre-emergence (PE)) [%]	Herbicidal action against ABUTH ([6]; Table 5, post-emergence (PO)) [%]	Herbicidal action against AMARE ([7]; Table 5, post-emergence (PO)) [%]	Herbicidal action against ECHCG [8] [%]	Herbicidal action against PHBPU [9] [%]	Herbicidal action against POLCO [10] [%]	Herbicidal action against SETVI ([11]; Table 5, post-emergence (PO)) [%]	Herbicidal action against STEME ([12]; Table 5, post-emergence (PO)) [%]	Herbicidal action against VIOTR [13] [%]	Herbicidal action against ABUTH ([1]; Table 2, pre-emergence (PE)) [%]	Herbicidal action against ALOMY ([2]; Table 2, pre-emergence (PE)) [%]	Herbicidal action against AMARE ([3]; Table 2, pre-emergence (PE)) [%]	Herbicidal action against ECHCG ([4]; Table 2, pre-emergence (PE)) [%]	Herbicidal action against POLCO [14] [%]	Herbicidal action against SETVI ([5]; Table 2, pre-emergence (PE)) [%]	Herbicidal action against VIOTR [15] [%]	further results
Nc1cc(-c2ccc3sccc3c2)nc(C(=O)OCc2ccc(Cl)cc2)c1Cl [Example I-19]	70	60	100	50	50	90	100	100	100	0	80	100	80	–	–	–	–	–	–	–	–
Nc1c(Cl)c(C(=O)OCc2cccc(C(F)(F)F)c2)nc(Cl)c1-c1ccc2sccc2c1 [Example I-21, 3-(trifluoromethyl)benzyl 4-amino-6-chloro-(1-benzothiophen-5-yl)-3-chloropyridine-2-carboxylate]	50	40	60	100	80	90	100	90	80	40	90	90	80	–	–	–	–	–	–	–	–
Nc1c(F)c(-c2ccc3sccc3c2)nc(C(=O)OCc2ccc(F)cc2)c1Cl [Example I-29]	70	80	100	80	70	80	100	90	40	90	80	80	50	–	–	–	–	–	–	–	–
Nc1cc(-c2ccc3occc3c2)nc(C(=O)OCc2c(F)cc(F)cc2F)c1Cl [Example I-20]	–	–	–	–	–	–	–	–	–	–	–	–	–	50	70	100	100	100	100	40	Herbicidal action against ABUTH ([6]; Table 6, post-emergence (PO)): 100%; Herbicidal action against AMARE ([7]; Table 6, post-emergence (PO)): 100%; Herbicidal action against SETVI ([11]; Table 6, post-emergence (PO)): 100%; Herbicidal action against STEME ([12]; Table 6, post-emergence (PO)): 100%
Nc1cc(-c2ccc3sccc3c2)nc(C(=O)OCc2cccc(Cl)c2)c1Cl [Example I-40]	–	–	–	–	–	90	100	90	80	40	90	80	60	–	–	–	–	–	–	–	Herbicidal action against AMARE ([3]; Table 4, pre-emergence (PE)): 80%; Herbicidal action against ECHCG ([4]; Table 4, pre-emergence (PE)): 10%
COc1c(F)ccc(COC(=O)c2nc(-c3ccc4ccsc4c3)cc(N)c2Cl)c1F [Example I-08]	–	–	–	–	–	–	–	–	–	–	–	–	–	0	60	100	100	100	90	20	Herbicidal action against ABUTH ([6]; Table 6, post-emergence (PO)): 100%; Herbicidal action against AMARE ([7]; Table 6, post-emergence (PO)): 100%; Herbicidal action against SETVI ([11]; Table 6, post-emergence (PO)): 70%; Herbicidal action against STEME ([12]; Table 6, post-emergence (PO)): 100%
COc1c(F)ccc(COC(=O)c2nc(-c3ccc4sccc4c3)cc(N)c2Cl)c1F [Example I-22]	20	50	100	90	90	100	100	90	80	90	100	100	80	–	–	–	–	–	–	–	–
Nc1c(F)c(-c2ccc3ccsc3c2)nc(C(=O)OCc2c(F)cc(F)cc2F)c1Cl [Example I-55]	–	–	–	–	–	60	100	90	0	90	90	90	10	–	–	–	–	–	–	–	Herbicidal action against AMARE ([3]; Table 4, pre-emergence (PE)): 100%; Herbicidal action against ECHCG ([4]; Table 4, pre-emergence (PE)): 40%
Nc1c(F)c(-c2ccc3occc3c2)nc(C(=O)OCc2ccc(F)cc2)c1Cl [Example I-34]	–	–	–	–	–	90	100	80	40	80	100	90	0	–	–	–	–	–	–	–	Herbicidal action against AMARE ([3]; Table 4, pre-emergence (PE)): 100%; Herbicidal action against ECHCG ([4]; Table 4, pre-emergence (PE)): 50%
Nc1cc(-c2ccc3occc3c2)nc(C(=O)OCc2cc(F)c(F)cc2F)c1Cl [Example I-06]	–	–	–	–	–	–	–	–	–	–	–	–	–	20	80	100	100	100	90	60	Herbicidal action against ABUTH ([6]; Table 6, post-emergence (PO)): 100%; Herbicidal action against AMARE ([7]; Table 6, post-emergence (PO)): 100%; Herbicidal action against SETVI ([11]; Table 6, post-emergence (PO)): 90%; Herbicidal action against STEME ([12]; Table 6, post-emergence (PO)): 100%
Nc1cc(-c2ccc3ccsc3c2)nc(C(=O)OCc2ccc(Cl)cc2)c1Cl [Example I-14]	50	30	100	100	80	100	100	90	80	100	90	100	70	–	–	–	–	–	–	–	–
Nc1cc(-c2ccc3ccsc3c2)nc(C(=O)OCc2ccc(F)cc2F)c1Cl [Example I-12]	–	–	–	–	–	–	–	–	–	–	–	–	–	20	70	100	100	100	90	20	Herbicidal action against ABUTH ([6]; Table 6, post-emergence (PO)): 90%; Herbicidal action against AMARE ([7]; Table 6, post-emergence (PO)): 100%; Herbicidal action against SETVI ([11]; Table 6, post-emergence (PO)): 100%; Herbicidal action against STEME ([12]; Table 6, post-emergence (PO)): 100%
Nc1cc(-c2ccc3occc3c2)nc(C(=O)OCc2ccc(C(F)(F)F)cc2)c1Cl [Example I-36]	–	–	–	–	–	–	–	–	–	–	–	–	–	90	50	100	90	90	90	0	Herbicidal action against ABUTH ([6]; Table 6, post-emergence (PO)): 100%; Herbicidal action against AMARE ([7]; Table 6, post-emergence (PO)): 100%; Herbicidal action against SETVI ([11]; Table 6, post-emergence (PO)): 80%; Herbicidal action against STEME ([12]; Table 6, post-emergence (PO)): 100%
